Tests used:
FLT3 (D835Y) = biological target: T1, FLT3 (D835Y) (Homo sapiens, UniProt P36888, D835Y); assay: HotSpot kinase assay against FLT3 (D835Y); format: biochemical; conditions: HotSpot 33P assay, ATP 10 μM
T1 sequence (P36888 27-993 D835Y): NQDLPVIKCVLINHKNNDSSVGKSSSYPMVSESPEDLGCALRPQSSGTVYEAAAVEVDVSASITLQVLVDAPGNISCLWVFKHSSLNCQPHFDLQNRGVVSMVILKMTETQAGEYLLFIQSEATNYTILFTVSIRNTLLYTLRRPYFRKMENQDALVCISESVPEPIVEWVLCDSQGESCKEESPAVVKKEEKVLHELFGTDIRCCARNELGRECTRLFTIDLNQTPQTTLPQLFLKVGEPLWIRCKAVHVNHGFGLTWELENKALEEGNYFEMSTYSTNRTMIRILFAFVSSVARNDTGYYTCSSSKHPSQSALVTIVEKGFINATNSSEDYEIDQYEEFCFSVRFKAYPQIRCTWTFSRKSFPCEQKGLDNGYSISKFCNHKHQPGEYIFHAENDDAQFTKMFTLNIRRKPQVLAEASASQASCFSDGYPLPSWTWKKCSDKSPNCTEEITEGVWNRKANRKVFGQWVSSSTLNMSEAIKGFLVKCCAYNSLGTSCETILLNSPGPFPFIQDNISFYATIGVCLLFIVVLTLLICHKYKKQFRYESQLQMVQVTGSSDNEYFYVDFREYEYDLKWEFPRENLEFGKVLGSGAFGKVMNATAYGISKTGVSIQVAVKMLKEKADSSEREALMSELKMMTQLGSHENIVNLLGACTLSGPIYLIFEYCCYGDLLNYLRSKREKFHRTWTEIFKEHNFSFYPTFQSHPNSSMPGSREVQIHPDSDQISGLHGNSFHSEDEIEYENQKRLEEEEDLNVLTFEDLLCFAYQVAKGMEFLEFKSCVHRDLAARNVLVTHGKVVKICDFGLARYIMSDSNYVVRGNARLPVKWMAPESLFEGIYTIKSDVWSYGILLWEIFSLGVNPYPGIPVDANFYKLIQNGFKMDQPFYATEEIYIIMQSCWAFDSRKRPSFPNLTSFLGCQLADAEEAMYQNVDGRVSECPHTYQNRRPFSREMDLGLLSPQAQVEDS
Protocol: Kinase assays were performed using test compounds against a panel of FLT3 kinases: FLT3; FLT3 (D835Y); and FLT3 (ITD). Compounds were prepared as 10 mM stock solutions in DMSO prior to use in the assay. Each compound was tested at 10 concentrations with three-fold serial dilution starting at 1 μM against the three kinases. The control compound, staurosporine, was tested at 10 concentrations with four-fold serial dilution starting at 20 μM. IC50 values and curve fits were obtained using Prism (GraphPad Software). The screening was performed using the “HotSpot” assay platform. The assay measures the conversion of a peptide substrate to ^33P-labelled phosphorylated product. Briefly, specific kinase/substrate pairs along with required cofactors were prepared in reaction buffer. Specifically, the substrate was prepared in reaction buffer (20 mM Hepes, pH 7.5; 10 mM MgCl2; 1 mM EGTA; 0.02% Brij35; 0.02 mg/mL BSA; 0.1 mM Na3VO4; 2 mM DTT; 1% DMSO), followed by delivery of any required cofactor to the resulting substrate solution. The corresponding kinase was delivered into the substrate solution and the reaction mixture was mixed gently. Compound was delivered into the reaction mixture, followed 15-20 min later by addition of a mixture of ATP (Sigma, St. Louis Mo.) and ^33P ATP (specific activity 0.01 μCi/μL final; Perkin Elmer, Waltham, Mass.) to a final concentration of 10 μM to initiate the reaction. Reactions were carried out at RT for 120 min, followed by spotting of the reactions onto P81 ion exchange filter paper (Whatman #3698-915; Whatman Inc., Piscataway, N.J.). Unbound phosphate was removed by extensive washing of filters in 0.75% phosphoric acid. […] The percent of enzyme inhibition was calculated based on the percent of remaining kinase activity. IC50 values were determined.

ABL1 = ABL1 (Homo sapiens, UniProt P00519); assay: HotSpot kinase assay against ABL1; format: biochemical; conditions: HotSpot 33P assay, ATP 10 μM-30 μM
ABL1, sequence (P00519 whole entry): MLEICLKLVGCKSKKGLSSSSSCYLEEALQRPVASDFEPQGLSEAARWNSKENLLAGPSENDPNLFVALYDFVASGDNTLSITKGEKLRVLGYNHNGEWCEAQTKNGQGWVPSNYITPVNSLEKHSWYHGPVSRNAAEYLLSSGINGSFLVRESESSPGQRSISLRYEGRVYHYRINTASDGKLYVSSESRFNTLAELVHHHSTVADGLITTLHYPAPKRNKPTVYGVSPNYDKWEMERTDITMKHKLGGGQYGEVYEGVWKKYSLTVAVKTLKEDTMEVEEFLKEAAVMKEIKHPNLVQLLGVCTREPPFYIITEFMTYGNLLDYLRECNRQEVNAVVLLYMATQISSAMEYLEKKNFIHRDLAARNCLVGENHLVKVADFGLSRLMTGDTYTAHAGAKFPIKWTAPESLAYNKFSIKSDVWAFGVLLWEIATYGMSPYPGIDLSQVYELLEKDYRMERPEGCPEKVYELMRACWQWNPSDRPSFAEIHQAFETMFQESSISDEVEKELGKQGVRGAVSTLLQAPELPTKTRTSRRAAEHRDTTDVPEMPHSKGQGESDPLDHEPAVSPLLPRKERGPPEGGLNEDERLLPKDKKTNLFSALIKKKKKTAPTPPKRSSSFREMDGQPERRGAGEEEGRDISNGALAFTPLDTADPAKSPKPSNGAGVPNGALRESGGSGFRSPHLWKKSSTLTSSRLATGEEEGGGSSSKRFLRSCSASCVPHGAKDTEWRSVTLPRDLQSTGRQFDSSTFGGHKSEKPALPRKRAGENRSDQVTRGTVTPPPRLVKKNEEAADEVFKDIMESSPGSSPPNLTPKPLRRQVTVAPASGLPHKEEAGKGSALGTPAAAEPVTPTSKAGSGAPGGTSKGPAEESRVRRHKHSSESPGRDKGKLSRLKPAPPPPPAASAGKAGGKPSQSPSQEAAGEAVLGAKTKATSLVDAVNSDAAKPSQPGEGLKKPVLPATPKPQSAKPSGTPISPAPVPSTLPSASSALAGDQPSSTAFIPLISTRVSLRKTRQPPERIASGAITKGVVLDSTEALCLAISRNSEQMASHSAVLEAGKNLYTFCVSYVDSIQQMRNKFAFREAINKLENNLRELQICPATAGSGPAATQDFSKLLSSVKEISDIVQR
Protocol: The screening was performed using the “HotSpot” assay platform. The assay measures the conversion of a peptide substrate to ^33P-labelled phosphorylated product. Briefly, specific kinase/substrate pairs along with required cofactors were prepared in reaction buffer. Specifically, the substrate was prepared in reaction buffer (20 mM Hepes, pH 7.5; 10 mM MgCl2; 1 mM EGTA; 0.02% Brij35; 0.02 mg/mL BSA; 0.1 mM Na3VO4; 2 mM DTT; 1% DMSO), followed by delivery of any required cofactor to the resulting substrate solution. The corresponding kinase was delivered into the substrate solution and the reaction mixture was mixed gently. Compound was delivered into the reaction mixture, followed 15-20 minutes later by addition of a mixture of ATP (Sigma, St. Louis Mo.) and ^33P ATP (specific activity 0.01 μCi/μL final; Perkin Elmer, Waltham, Mass.) to a final concentration of 10 μM-30 μM to initiate the reaction. Reactions were carried out at RT for 120 min, followed by spotting of the reactions onto P81 ion exchange filter paper (Whatman #3698-915; Whatman Inc., Piscataway, N.J.). Unbound phosphate was removed by extensive washing of filters in 0.75% phosphoric acid. […] The percent of enzyme inhibition was calculated based on the percent of remaining kinase activity. IC50 values and curve fits were obtained using Prism (GraphPad Software).

Structure (SMILES)	IC50 (FLT3 (D835Y))	IC50 (ABL1)
CC1(C(=O)N2CCC(F)(F)CC2)CCCN1c1nc2c(c(Nc3cc(C4CCCC4)[nH]n3)n1)CCC2 (racemic) [compound 146, (1-(4-((5-cyclopentyl-1H-pyrazol-3-yl)amino)-6,7-dihydro-5H-cyclopenta[d]pyrimidin-2-yl)-2-methylpyrrolidin-2-yl)(4,4-difluoropiperidin-1-yl)methanone]	1570 nM	
CC(C)(C)c1cc(Nc2nc(N3CCC[C@@H]3C(=O)N3CCC(F)(F)CC3)nc3c2CCC3)n[nH]1 [142a, (R)-(1-(4-((5-(tert-butyl)-1H-pyrazol-3-yl)amino)-6,7-dihydro-5H-cyclopenta[d]pyrimidin-2-yl)pyrrolidin-2-yl)(4,4-difluoropiperidin-1-yl)methanone]	> 1000 nM	> 1000 nM
CC(C)(C)c1cc(Nc2nc(N3CCC[C@H]3C(=O)N3CCC(F)(F)CC3)nc3c2CCC3)n[nH]1 [142b, (S)-(1-(4-((5-(tert-butyl)-1H-pyrazol-3-yl)amino)-6,7-dihydro-5H-cyclopenta[d]pyrimidin-2-yl)pyrrolidin-2-yl)(4,4-difluoropiperidin-1-yl)methanone]	> 1000 nM	> 1000 nM
CCN(C(=O)[C@@H]1CCCN1c1nc2c(c(Nc3cc(C(C)(C)C)[nH]n3)n1)CCC2)c1nccs1 [144b, (S)-1-(4-((5-(tert-butyl)-1 H-pyrazol-3-yl)amino)-6,7-dihydro-5H-cyclopenta[d]pyrimidin-2-yl)-N-ethyl-N-(thiazol-2-yl)pyrrolidine-2-carboxamide]	> 1000 nM	> 1000 nM

Compounds with a lower IC50 (FLT3 (D835Y)), results first:

IC50 (FLT3 (D835Y))	IC50 (ABL1)	Structure (SMILES)
83.8 nM	316 nM	CC(C)c1cc(Nc2nc(N3CCC[C@H]3C(=O)N(C)c3nccs3)nc3c2CCC3)n[nH]1 [68b, (S)-1-(4-((5-isopropyl-1H-pyrazol-3-yl)amino)-6,7-dihydro-5H-cyclopenta[d]pyrimidin-2-yl)-N-methyl-N-(thiazol-2-yl)pyrrolidine-2-carboxamide]
14 nM	> 1000 nM	CCC(=O)N1CCN(C(=O)[C@H]2CCCN2c2nc3c(c(Nc4cc(C5CCCC5)[nH]n4)n2)CCC3)CC1 [143a, 1-(4-((4-((5-cyclopentyl-1H-pyrazol-3-yl)amino)-6,7-dihydro-5H-cyclopenta[d]pyrimidin-2-yl)-D-prolyl)piperazin-1-yl)propan-1-one]
187 nM	> 1000 nM	CCC(=O)N1CCN(C(=O)[C@@H]2CCCN2c2nc3c(c(Nc4cc(C5CCCC5)[nH]n4)n2)CCC3)CC1 [143b, (S)-1-(4-((4-((5-cyclopentyl-1H-pyrazol-3-yl)amino)-6,7-dihydro-5H-cyclopenta[d]pyrimidin-2-yl)prolyl)piperazin-1-yl)propan-1-one]
262 nM		CCN(C(=O)[C@@H]1CCCN1c1nc2c(c(Nc3cc(C(C)C)[nH]n3)n1)CCC2)c1nccs1 [145b, (S)—N-ethyl-1-(4-((5-isopropyl-1H-pyrazol-3-yl)amino)-6,7-dihydro-5H-cyclopenta[d]pyrimidin-2-yl)-N-(thiazol-2-yl)pyrrolidine-2-carboxamide]

From patent US20170137410A1, “FUSED CYCLOALKYL-PYRIMIDINE COMPOUNDS AND USES THEREOF” (Medivation Technologies, Inc., priority 2014, published 2017)
